Data from patent US20230295580A1, “SPHEROID GENERATOR, SPHEROID CULTURE KIT, AND SPHEROID CULTURE METHOD” (RESEARCH AND BUSINESS FOUNDATION SUNGKYUNKWAN UNIVERSITY, priority 2020, published 2023).

Tested on: cancer cells of the spheroid
Assay: Spheroid culture with anticancer substance injected through sub-injection part; live/dead cancer cell viability
Format: cell-based
Conditions: spheroid formed for 12 to 36 hours, then anticancer substance for 12 to 36 hours; increasing injected volume of TMZ; Dead/Live/Merge images, microscope
Procedure: Referring to FIG. 11 to FIG. 13, a spheroid generator 10 in which the size of a sub-injection part 18 is increased from one side to the other side of a culture plate 120 is disposed (S11). In this case, main injection parts 14 having the same size are formed in all of the spheroid generators 10.
A cancer cell solution 21 is prepared (S12). That is, the cancer cell solution 21 is prepared by mixing a plurality of cancer cells with a culture medium 24.
The cancer cell solution 21 is injected into the main injection parts 14 of the plurality of spheroid generators 10 (S13). In this case, since main injection parts 14 having the same size are formed in all of the spheroid generators 10, the same amount of the cancer cell solution 21 is injected into all of the main injection parts 14.
As the cancer cells of the cancer cell solution 21 are cultured in the plurality of spheroid generators 10, a spheroid 25 is formed (S14). In this case, the step of forming a spheroid 25 as the cancer cells of the cancer cell solution 21 are cultured in the plurality of spheroid generators 10 is performed for 12 to 36 hours.
An anticancer substance 23 is injected into a sub-injection part 18 of the plurality of spheroid generators 10 (S15). […]

Cn1nnc2c(C(N)=O)ncn2c1=O [TMZ]
relative viability of cancer cells: decreases
